Measured values taken from patent US8815772B2, “Fungicidal heterocyclic carboxamides” (E I du Pont de Nemours and Company, priority 2012, dated 2014).
Marks after values point to notes of the source that are not given here.

Legend:
[1] = test system: Puccinia recondita f. sp. tritici; assay: Test G: wheat leaf rust, preventive spray on wheat seedlings, visual disease rating
Description: (§2) General protocol for preparing test suspensions for Tests A-H: the test compounds were first dissolved in acetone in an amount equal to 3% of the final volume and then suspended at the desired concentration (in ppm) in acetone and purified water (50/50 mix by volume) containing 250 ppm of the surfactant Trem® 014 (polyhydric alcohol esters). The resulting test suspensions were then used in Tests A-H. Spraying a 200 ppm test suspension to the point of run-off on the test plants was the equivalent of a rate of 600 g/ha. Unless otherwise indicated, the rating values indicate a 200 ppm test suspension was used.
The test suspension was sprayed to the point of run-off on wheat seedlings. The following day the seedlings were inoculated with a spore suspension of Puccinia recondita f. sp. tritici (the causal agent of wheat leaf rust) and incubated in a saturated atmosphere at 20° C. for 24 h, and then moved to a growth chamber at 20° C. for 6 days, after which time visual disease ratings were made.
(§3) An asterisk “*” next to the rating value indicates a 40 ppm test suspension was used, a double asterisk “**” next to the rating value indicates a 130 ppm test suspension was used.

[2] = test system: Botrytis cinerea; assay: Test B: tomato botrytis, preventive spray on tomato seedlings, visual disease rating; settings: for Test B rating (disease control): rating without asterisk, 100 = 100% disease control, 0 = no disease control relative to the controls
Description: as §2
The test suspension was sprayed to the point of run-off on tomato seedlings. The following day the seedlings were inoculated with a spore suspension of Botrytis cinerea (the causal agent of tomato botrytis) and incubated in saturated atmosphere at 20° C. for 48 h, and then moved to a growth chamber at 24-27° C. for 2-3 days, after which time visual disease ratings were made.
A dash (-) indicates no test results. An asterisk “*” next to the rating value indicates a 40 ppm test suspension was used, a double asterisk “**” next to the rating value indicates a 130 ppm test suspension was used.

[3] = test system: Blumeria graminis f. sp. tritici; assay: Test H: wheat powdery mildew, preventive spray on wheat seedlings, visual disease rating
Description: General protocol for preparing test suspensions for Tests A-H: the test compounds were first dissolved in acetone in an amount equal to 3% of the final volume and then suspended at the desired concentration (in ppm) in acetone and purified water (50/50 mix by volume) containing 250 ppm of the surfactant Trem® 014 (polyhydric alcohol esters). The resulting test suspensions were then used in Tests A-H. Spraying a 200 ppm test suspension to the point of run-off on the test plants was the equivalent of a rate of 600 g/ha. Unless otherwise indicated, the rating values indicate a 200 ppm test suspension was used. (In Table A, an asterisk “*” next to the rating value indicates a 40 ppm test suspension was used; a double asterisk “**” next to the rating value indicates a 130 ppm.)
The test suspension was sprayed to the point of run-off on wheat seedlings. The following day the seedlings were inoculated with a spore dust of Blumeria graminis f. sp. tritici (also known as Erysiphe graminis f. sp. tritici, the causal agent of wheat powdery mildew) and incubated in a growth chamber at 20° C. for 8 days, after which time visual disease ratings were made.
as §3

[4] = test system: Phytophthora infestans; assay type: in vivo; settings: rating without asterisk; 100 = 100% disease control, 0 = no disease control relative to the controls
[5] = test system: Septoria nodorum; assay: Test E: Septoria glume blotch, preventive spray on wheat seedlings, visual disease rating; assay type: in vivo
Description: (§1) A dash (-) indicates no test results.

[6] = test system: Septoria tritici; assay: Test F: wheat leaf blotch, preventive spray on wheat seedlings, visual disease rating; assay type: in vivo
Description: as §1

[7] = test system: Alternaria solani; assay: Test C: tomato early blight, preventive spray on tomato seedlings, visual disease rating; assay type: in vivo; settings: rating without asterisk; 100 = 100% disease control, 0 = no disease control relative to the controls
Description: as §1

[8] = test system: cucumber seedlings; assay: Test I: phytotoxicity to the cucumber seedlings of the test units; assay type: in vivo; settings: 250 ppm active ingredient applied to soil, 7 days
Procedure: Control of the southern root-knot nematode (Meloidogyne incognita) through contact and/or systemic means was evaluated in test units consisting of small open containers filled with a sandy soil mixture and cucumber seedlings.
Test compounds were formulated using a solution containing 50% acetone and 50% water. Test compounds were applied directly to the soil of the test units at concentrations of 250 or 50 ppm active ingredient. Each test was replicated 3 times. After treatment, the test units were allowed to dry for 1 h, after which time about 250 second-stage juvenile (J2) larvae were pipetted into the soil. The test units were held at 27° C. and watered as needed for 7 days.
Nematocidal efficacy was determined by the amount of root gall formation observed when compared to an untreated control. No gall formation was indicative of 100% nematode control. Gall formation equivalent to that found in the untreated control was indicative of 0% control. No nematode control rating was given to compounds showing significant phytotoxicity.

[9] = test system: Plasmopara viticola; assay: Test A: grape downy mildew, curative spray on grape seedlings, visual disease rating; assay type: in vivo; settings: rating without asterisk; 100 = 100% disease control, 0 = no disease control relative to the controls
Description: Upon removal, visual disease ratings were made. […] A dash (-) indicates no test results.

[10] = rating without asterisk, 100 = 100% disease control, 0 = no disease control relative to the controls

Molecule: 3-difluoromethyl)-N-[3′,5′-difluoro-4′-(1-methyl-1H-pyrazol-3-yl)[1,1′-biphenyl]-2-yl]-1-methyl-1H-pyrazole [Compound 232]
- Test G rating (100 = 100% disease control, 0 = no disease control relative to the controls) ([1]; no asterisk: standard test suspension, wheat leaf rust): 100%
- Test B rating (100 = 100% disease control, 0 = no disease control relative to the controls) ([2]; no asterisk: standard test suspension, tomato botrytis): 81%
- Test H rating (100 = 100% disease control, 0 = no disease control relative to the controls) ([3]; no asterisk: standard test suspension, wheat powdery mildew): 97%

Molecule: CC(Cc1ccc(-n2ccc(C(F)(F)F)n2)cc1Cl)NC(=O)c1nccnc1Cl (stereo not drawn) [Compound 1]
- Test D rating (disease control) [4]: 0%
- Test E rating (disease control) [5, 10]: 100%
- Test F rating (disease control) [6, 10]: 100%
- Test G rating (disease control) [1, 10]: 54%
- Test B rating (disease control) [2]: 99%
- Test H rating (disease control) [3, 10]: 100%

Molecule: O=C(NCCc1ccc(-n2ccc(C(F)(F)F)n2)cc1)c1ccccc1C(F)(F)F [Compound 5, 2-(trifluoromethyl)-N-[2-[4-[3-(trifluoromethyl)-1H-pyrazol-1-yl]phenyl]ethyl]benzamide]
- Test C rating (disease control) [7]: 83%
- Test D rating (disease control) [4]: 0%
- Test E rating (disease control) [5, 10]: 0%
- Test F rating (disease control) [6, 10]: 100%
- phytotoxicity [8]: no significant phytotoxicity
- Test G rating (disease control) [1, 10]: 0%
- Test B rating (disease control) [2]: 17%
- Test H rating (disease control) [3, 10]: 96%

Molecule: O=C(NCCc1ccc(-n2ccc(C(F)(F)F)n2)cc1Cl)c1ncccc1C(F)(F)F [Compound 40, N-[2-[2-chloro-4-[3-(trifluoromethyl)-1H-pyrazol-1-yl]phenyl]ethyl]-3-(trifluoromethyl)-2-pyridinecarboxamide]
- Test D rating (disease control) [4]: 0%
- Test E rating (disease control) [5, 10]: 100%
- Test F rating (disease control) [6, 10]: 100%
- phytotoxicity [8]: no significant phytotoxicity
- Test G rating (disease control) [1, 10]: 0%
- Test B rating (disease control) [2]: 66%
- Test H rating (disease control) [3, 10]: 100%

Molecule: O=C(NCCc1ncc(-n2ccc(C(F)(F)F)n2)cc1Cl)c1ccccc1C(F)(F)F [Compound 85, N-[2-[3-chloro-5-[(3-trifluoromethyl)-1H-pyrazol-1-yl]-2-pyridinyl]ethyl]-2-(trifluoromethyl)benzamide]
- Test A rating (disease control) [9]: 0%
- Test D rating (disease control) [4]: 0%
- Test E rating (disease control) [5, 10]: 100%
- Test F rating (disease control) [6, 10]: 100%
- Test G rating (disease control) [1, 10]: 0%
- Test B rating (disease control) [2]: 95%
- Test H rating (disease control) [3, 10]: 100%

Molecule: O=C(NCC(F)(F)c1ccc(-n2ccc(C(F)(F)F)n2)cc1Cl)c1ncccc1C(F)(F)F [Compound 150, N-[2-[2-chloro-4-[3-(trifluoromethyl)-1H-pyrazol-1-yl]phenyl]-2,2-difluoroethyl]-3-(trifluoromethyl)-2-pyridinecarboxamide]
- Test E rating (disease control) ([5]; * 40 ppm test suspension): 100* %
- Test F rating (disease control) ([6]; * 40 ppm test suspension): 100* %
- phytotoxicity [8]: no significant phytotoxicity
- Test G rating (disease control) ([1]; * 40 ppm test suspension): 0* %
- Test H rating (disease control) ([3]; * 40 ppm test suspension): 100* %

Molecule: O=C(Nc1ccccc1-c1cc(F)c(-n2ccc(C(F)(F)F)n2)c(F)c1)c1cccnc1Cl [Compound 170, 2-chloro-N-[3′,5′-difluoro-4′-[3-(trifluoromethyl)-1H-pyrazol-1-yl][1,1′-biphenyl]-2-yl]-3-pyridinecarboxamide]
- Test A rating (disease control) [9]: 0%
- Test D rating (disease control) [4]: 0%
- Test E rating (disease control) [5, 10]: 0%
- Test F rating (disease control) [6, 10]: 100%
- Test G rating (disease control) [1, 10]: 100%
- Test B rating (disease control) [2]: 0%
- Test H rating (disease control) [3, 10]: 100%

Molecule: O=C(Nc1ccccc1-c1cc(F)c(-n2ccc(C(F)(F)F)n2)c(F)c1)c1ncccc1C(F)(F)F [Compound 172, N-[3′,5′-difluoro-4′-[3-(trifluoromethyl)-1H-pyrazol-yl][1,1′-biphenyl]-2-yl]-3-(trifluoromethyl)-2-pyridinecarboxamide]
- Test A rating (disease control) [9]: 0%
- Test D rating (disease control) [4]: 0%
- Test E rating (disease control) [5, 10]: 100%
- Test F rating (disease control) [6, 10]: 100%
- Test G rating (disease control) [1, 10]: 100%
- Test B rating (disease control) [2]: 65%
- Test H rating (disease control) [3, 10]: 100%

Molecule: Cn1cc(C(=O)Nc2ccccc2-c2cc(F)c(-n3ccc(C(F)(F)F)n3)c(F)c2)c(C(F)F)n1 [Compound 173, 3-(difluoromethyl)-N-[3′,5′-difluoro-4′-[3-(trifluoromethyl)-1H-pyrazol-1-yl][1,1′-biphenyl]-2-yl]-1-methyl-1H-pyrazole-4-carboxamide]
- Test A rating (disease control) [9]: 0%
- Test D rating (disease control) [4]: 0%
- Test E rating (disease control) [5, 10]: 100%
- Test F rating (disease control) [6, 10]: 100%
- Test G rating (disease control) [1, 10]: 100%
- Test B rating (disease control) [2]: 72%
- Test H rating (disease control) [3, 10]: 100%
